Experimental data: US20160074401A1, “COMPOSITIONS AND METHODS UTILIZING PHOSPHODIESTERASE INHIBITORS TO TREAT BLAST-INDUCED TINNITUS AND/OR HEARING LOSS” (WAYNE STATE UNIVERSITY, priority 2013, published 2016)

Legend:
[1] = tested on: focal cerebral cryolesion; conditions: treatment following cryolesion; cited from earlier work
[2] = tested on: blast-exposed Sprague Dawley rats (wave 1 amplitude); test: ABR wave 1 (P1N1) amplitude after blast exposure; assay type: in vivo, rat; conditions: 28 kHz
Protocol: ABRs were recorded to evaluate hearing thresholds. Each rat was anesthetized using a mixture of air (0.41/min) and isoflurane (2-3%, v/v) and placed in a prone position with its head fixed to a stereotaxic frame. Body temperature was maintained using a warming blanket connected to a thermostatic controller (Harvard Instruments, Holliston, Mass.). Acoustic stimuli consisted of 0.1 ms clicks or 10 ms pure-tone bursts presented at 4, 8, 12, 16, 20, or 28 kHz and delivered through a speaker tube inserted into the external auditory canal. Three subcutaneous platinum-coated tungsten electrodes were used to record ABR waveforms, with the reference electrode inserted below the pinna ipsilateral to the speaker tube, the grounding electrode inserted below the contralateral pinna, and the recording electrode inserted at the vertex. […] Data were recorded using BioSigRP® and SigGenRP® software (TDT, Alachua, Fla.) installed on an IBM computer connected to System 3 TDT workstation.
There is a significant reduction in wave 1 amplitudes in human subjects suffering from tinnitus despite a seemingly normal audiogram. In order to assess the possibility of underlying wave 1 amplitude reduction despite recovery of ABR thresholds, wave 1 amplitudes for 28 kHz frequency were measured at pre-blast and at 6 weeks post-blast and compared between the Treated and Untreated groups (FIGS. 7A and 7B). […]

[3] = tested on: rats exposed to embolic stroke; conditions: sildenafil treated rats; cited from earlier work
[4] = upon oral intake; cited from earlier work
[5] = tested on: Neurospheres isolated from the subventricular zone of adult rat brains; conditions: neurospheres treated with sildenafil; cited from earlier work
[6] = tested on: blast-exposed Sprague Dawley rats (blast-induced tinnitus); test: Gap-detection testing (acoustic startle) for blast-induced tinnitus
From the text: Thirty adult Sprague Dawley rats (110 days old, 250-300 g) were purchased from Charles River Laboratories (Wilmington, Mass.).
Animals underwent 8 rounds of behavior testing to stabilize baseline Gap-detection and PPI performance prior to blast or sham-blast exposure. […] Briefly, each rat was placed in a custom-built polycarbonate restrainer (FIG. 1) and set inside a lit startle monitor cabinet equipped with two ceiling speakers for background sound/prepulses and startle stimuli. Restrainers were mounted on top of a platform connected to a piezoelectric transducer, which measured downward startle force. Acoustic stimuli and startle force were calibrated using a Newton impulse calibrator (Kinder Scientific) and a microphone (Model 4016; ACO Pacific, Belmont, Calif.).
During the Gap-detection procedure, rats were exposed to constant 60 dB sound pressure level (SPL) background noise consisting of 2 kHz bandpass signals from 2-4 kHz, 6-8 kHz, 8-10 kHz, 10-12 kHz, 14-16 kHz, 18-20 kHz, or 26-28 kHz, or BBN (2-30 kHz). They were subjected to either a 50 ms white noise burst startle stimulus (startle only; dominating plateau from 3-37 kHz with energy up to 97.5 kHz) presented at 115 dB or the startle stimulus preceded by a 40 ms silent period beginning 90 ms before the startle stimulus (Gap). For each testing session, rats were presented 8 times with the startle only and Gap conditions for each frequency bandpass signal and BBN. The PPI procedure was identical to the Gap-detection procedure except that no background sound was presented. Rats were subjected to either the startle stimulus alone (startle only) or the startle stimulus preceded by a 40 ms prepulse beginning 90 ms before the startle stimulus. Prepulses (60 dB, SPL) consisted of the same frequencies as those used for background noise.
A two-minute acclimatization period was given at the beginning of each session, followed by two startle stimuli presented without background sound to trigger any initial, exaggerated startle reflexes. Gap-detection and PPI testing sessions lasted a little over thirty minutes each. […]

CCCOc1ccccc1-c1nc2nn[nH]c2c(=O)[nH]1 [Zaprinast]
Effects after focal cerebral cryolesion [1]: improved functional recovery, reduced oxidative stress, and prevention of apoptotic cell death

CCCc1nn(C)c2c(=O)[nH]c(-c3cc(S(=O)(=O)N4CCN(C)CC4)ccc3OCC)nc12 [sildenafil, 1-[4-ethoxy-3-(6,7-dihydro-1-methyl-7-oxo-3-propyl-1H-pyrazolo[4,3-d]pyrimidin-5-yl)phenylsulfonyl]-4-methylpiperazine]
Wave 1 (P1N1) amplitude, Treated vs Untreated ([2]; exposed ear, 6 weeks post-blast): no significant differences between the two groups at time-matched points
Decrease of wave 1 amplitude ([2]; 6 weeks after triple blast exposure, Treated group (same in Untreated)): 45%
Effects after embolic stroke [3]: improvement in angiogenesis, selective increase in cerebral blood flow, and enhanced neurological functional recovery up to 6 weeks post-injury
Tmax [4]: ≤ 11 min
cGMP concentration [5]: increased cGMP concentration
Gap-detection in Sham group (drug, no blast): tinnitus symptoms produced by the drug ([6]; Sham group: sildenafil 10 mg/kg, no blast exposure, throughout the study): the drug itself did not produce tinnitus symptoms
Effect on high-frequency tinnitus (overall) ([6]; high-frequency (26-28 kHz) tinnitus, reemerged afterwards): suppressed high-frequency tinnitus from 3-6 weeks post-blast
Duration of therapeutic effect on blast-induced tinnitus (Gap-detection) ([6]; sildenafil 10 mg/kg oral gavage, two 7-day rounds): maintained up to week 6
